Results as given in patent US11028090B2 (Dong Wha Pharm. Co., Ltd., priority 2017, dated 2021).
Counter-ions that a name gives are not always drawn. Like-named read-outs stand apart in the source and are kept apart here.

Molecular target: BRD4 (BD1+BD2) bromodomain (Homo sapiens (Human), UniProt O60885)
Experiment: BRD4 binding inhibition (AlphaScreen, GST-BRD4 vs tetraacetylated histone H4 peptide)
Protocol: A mixture comprising 100 nM GST-BRD4 (BD1+BD2) and 100 nM biotinylated acetyl-histone H4 (Lys5,8,12,16) peptide was prepared in assay buffer (50 mM HEPES pH 7.4; 25 mM NaCl; 0.05% Tween 20; 0.1% bovine serum albumin (BSA); 10 mM dithiothreitol (DTT)). After adding 6 μl of the mixture to the diluent, 6 μl of the pre-mixed AlphaLISA Glutathione Acceptor Beads and AlphaScreen Streptavidin Donor Beads (PerkinElmer, 10 μg/ml in assay buffer, respectively) was added thereto. The samples were incubated in the dark at room temperature for 30 minutes (shaking at 300 rpm). Then, the signals were measured with PerkinElmer Envision HTS Multilabel Reader using an alpha screen protocol of PerkinElmer. Each plate contained the negative control in which biotinylated acetyl-histone H4 peptide and GST-BRD4 (BD1+BD2) were replaced by assay buffer. In the case of using the software GraphPad Prism for calculation, the negative control point was input as a low standard value. The positive control (probe molecule l-BET762 containing protein/peptide mixture) proceeded to pipetting.

[1] = GST-BRD4 (BD1+BD2) / biotinylated acetyl-histone H4 (Lys5,8,12,16) peptide, read-out: IC50, BRD4 binding inhibition
[2] = GST-BRD4 (BD1+BD2) vs biotinylated acetyl-histone H4 peptide, AlphaScreen, read-out: BRD4 IC50

SMILES | IC50 [1] [nM] | IC50 [2] [nM]
Cc1nnc2c(NCCCCN)nc3cc(OC(F)(F)F)ccc3n12 [Example 270, N^1-(1-methyl-7-trifluoromethoxy-[1,2,4]triazolo[4,3-a]quinoxaline-4-yl)-butane-1,4-diamine ditrifluoroacetic acid] | – | 85
Cc1nnc2c(NCCCCNC(=O)C(C)C)nc3cc(Cl)c(Cl)cc3n12 [Example 29, N-[4-(7,8-dichloro-1-methyl-[,2,4]triazolo[4,3-a]quinoxaline-4-ylamino)-butyl]-isobutyramide] | – | 98
COc1cc2nc(NCCCCC(=O)NC(C)C)c3nnc(C)n3c2cc1OC [Example 647, 5-(7,8-dimethoxy-1-methyl-[1,2,4]triazolo[4,3-a]quinoxaline-4-ylamino)-pentanoic acid-isopropylamide] | ≤ 50 | 29
Cc1nnc2c(NCCCCNC(=O)[C@@H](NC(=O)[C@H](C)O)C(C)C)nc3cc(N4CCOCC4)ccc3n12 [Example 504, (S)-2-(2-(S)-hydroxy-propionylamino)-3-methyl-N-[4-(1-methyl-7-morpholine-4-yl-[1,2,4]triazolo[4,3-a]quinoxaline-4-ylamino)-butyl]-butyramide hydrochloride] | ≤ 50 | 34
CCC(C)CC(=O)NCCCCNc1nc2c(OC)cc(OC)c(OC)c2n2c(C)nnc12 (stereo not drawn) [Example 489, 3-methyl-pentanoic acid-[4-(6,8,9-trimethoxy-1-methyl-[1,2,4]triazolo[4,3-a]quinoxaline-4-ylamino)-butyl]-amide] | ≤ 50 | 30
COc1cccc2c1nc(NCCCCN)c1nnc(C)n12 [Example 118, N^1-(6-methoxy-1-methyl-[1,2,4]triazolo[4,3-a]quinoxaline-4-yl)-butane-1,4-diamine dihydrochloride] | – | 54
COc1cc2nc(NCCCCC(=O)NC(C)(C)C)c3nnc(C)n3c2cc1OC [Example 646] | – | 56
Cc1nnc2c(NCCCCNC(=O)OC(C)(C)C)nc3ccc(C(N)=O)cc3n12 [Example 533, [4-(8-carbamoyl-1-methyl-[1,2,4]triazolo[4,3-a]quinoxaline-4-ylamino)-butyl]-carbamic acid-tert-butylester] | – | 67
Cc1ccc2nc(NCCCCNC(=O)NC(C)(C)C)c3nnc(C)n3c2c1 [Example 44, 1-tert--butyl-3-[4-(1,8-dimethyl-[1,2,4]triazolo[4,3-a]quinoxaline-4-ylamino)-butyl]-urea] | – | 72
COc1ccc2c(c1)nc(NCCCCNC(=O)CC(C)C)c1nnc(C(C)C)n12 [Example 627] | ≤ 50 | 23
COc1ccc2c(nc(NCCCCN)c3nnc(C)n32)c1Cl [Example 460, dihydrochloride] | ≤ 50 | 12
COc1ccc2c(c1)nc(NCCCCNC(=O)OC(C)C)c1nnc(C(C)C)n12 [Example 628, [4-(1-isopropyl-7-methoxy-[1,2,4]triazolo[4,3-a]quinoxaline-4-ylamino)-butyl]-carbamic acid isopropylester] | ≤ 50 | 48
COc1cc(C)c2c(c1)nc(NCCCCN)c1nnc(C)n12 [Example 456, N^1-(7-methoxy-1,9-dimethyl-[1,2,4]triazolo[4,3-a]quinoxaline-4-yl)-butane-1,4-diamine ditrifluoroacetic acid] | – | 75
Cc1nnc2c(NCCCCNC(=O)OC(C)(C)C)nc3ccc(Cl)cc3n12 [Example 54, [4-(8-chloro-1-methyl-[1,2,4]triazolo[4,3-a]quinoxaline-4-ylamino)-butyl]-carbamic acid-tert-butylester] | ≤ 50 | 50

Next, values leading:

IC50 [1] [nM] | IC50 [2] [nM] | SMILES
≤ 50 | 39 | Cc1nnc2c(NCCCCCC(=O)NCC(C)C)nc3ccccc3n12 [Example 662, 6-(1-methyl-[1,2,4]triazolo[4,3-a]quinoxaline-4-ylamino)-hexanoic acid isobutylamide]
– | 51 | COc1cc2nc(NCCCCNC(=O)c3ccccc3Cl)c3nnc(C)n3c2cc1C(F)(F)F [Example 481, 2-chloro-N-[4-(7-methoxy-1-methyl-8-trifluoromethyl-[1,2,4]triazolo[4,3-a]quinoxaline-4-ylamino)-butyl]-benzamide]
– | 62 | Cc1nnc2c(NCCCCNC(=O)OC(C)(C)C)nc3cc(C(=O)c4ccccc4)ccc3n12 [Example 260, [4-(7-benzoyl-1-methyl-[1,2,4]triazolo[4,3-a]quinoxaline-4-ylamino)-butyl]-carbamic acid-tert-butylester]
≤ 50 | 24 | Cc1noc(C)c1-c1ccc2c(c1)nc(NCCCCNC(=O)[C@H](O)C(C)C)c1nnc(C)n12 [Example 586, N-{4-[7-(3,5-dimethyl-isoxazol-4-yl)-1-methyl-[1,2,4]triazolo[4,3-a]quinoxaline-4-ylamino]-butyl}-2-(R)-hydroxy-3-methyl-butyramide]
– | 69 | COc1cc2c(nc(NCCCCNC(=O)CC(C)C)c3nnc(C)n32)c(OC)c1OC [Example 195, 3-methyl-N-[4-(6,7,8-trimethoxy-1-methyl-[1,2,4]triazolo[4,3-a]quinoxaline-4-ylamino)-butyl]-butyramide]
– | 62 | Cc1nnc2c(NCCCCN)nc3cc(-c4nc5ccccc5n4C)ccc3n12 [Example 221, N^1-[1-methyl-7-(1-methyl-1H-benzoimidazole-2-yl)-[1,2,4]triazolo[4,3-a]quinoxaline-4-yl]-butane-1,4-diamine ditrifluoroacetic acid]
– | 69 | COc1cc2nc(NCCCCNC(=O)c3ccc(Cl)cc3)c3nnc(C)n3c2cc1OC [Example 100, 4-chloro-N-[4-(7,8-dimethoxy-1-methyl-[1,2,4]triazolo[4,3-a]quinoxaline-4-ylamino)-butyl]-benzamide]
– | 73 | Cc1ccc2nc(NCCCCNC(=O)Nc3ccccc3)c3nnc(C)n3c2c1 [Example 46, 1-[4-(1,8-dimethyl-[1,2,4]triazolo[4,3-a]quinoxaline-4-ylamino)-butyl]-3-phenyl-urea]
≤ 50 | 36 | Cc1nnc2c(NCCCCNC(=O)c3ccc(Cl)nc3Cl)nc3ccccc3n12 [Example 19, 2,6-dichloro-N-[4-(1-methyl-[1,2,4]triazolo[4,3-a]quinoxaline-4-ylamino)-butyl]-nicotinamide]
≤ 50 | 44 | Cc1nnc2c(NCCCCOC(=O)C(C)C)nc3ccccc3n12 [Example 632]
≤ 50 | 28 | COCCOc1ccc2c(c1)nc(NCCCCNC(=O)N1CCOCC1)c1nnc(C)n12 [Example 425, morpholine-4-carboxylic acid-{4-[7-(2-methoxy-ethoxy)-1-methyl-[1,2,4]triazolo[4,3-a]quinoxaline-4-ylamino]-butyl}-amide]
≤ 50 | 26 | Cc1nnc2c(NCCCCNC(=O)CC(C)C)nc3cc(C(=O)O)ccc3n12 [Example 201, 1-methyl-4-[4-(3-methyl-butyrylamino)-butylamino]-[1,2,4]triazolo[4,3-a]quinoxaline-7-carboxylic acid]
≤ 50 | 44 | Cc1nnc2c(NCCCCNC(=O)c3ccc(Cl)c(Cl)c3)nc3ccccc3n12 [Example 16, 3,4-dichloro-N-[4-(1-methyl-[1,2,4]triazolo[4,3-a]quinoxaline-4-ylamino)-butyl]-benzamide]
≤ 50 | 16 | COc1ccc2c(c1)nc(NCCCCNC(=O)[C@@H](OC)C(C)C)c1nnc(C)n12 [Example 301, 2-(S)-methoxy-N-[4-(7-methoxy-1-methyl-[1,2,4]triazolo[4,3-a]quinoxaline-4-ylamino)-butyl]-3-methyl-butyramide]
≤ 50 | 15 | COCCOc1ccc2c(c1)nc(NCCCCNC(=O)[C@@H](NC(=O)[C@@H](O)C(C)C)C(C)C)c1nnc(C)n12 [Example 404, 2-(S,S)-hydroxy-N-(1-{4-[7-(2-methoxy-ethoxy)-1-methyl-[1,2,4]triazolo[4,3-a]quinoxaline-4-ylamino]-butylcarbamoyl}-2-methyl-propyl)-3-methyl-butyramide]
≤ 10 | 7 | COCCn1c(-c2ccc3c(c2)nc(NCCCCNC(=O)CC(C)C)c2nnc(C)n23)nc2ccccc21 [Example 241, N-(4-{7-[1-(2-methoxy-ethyl)-1H-benzoimidazole-2-yl]-1-methyl-[1,2,4]triazolo[4,3-a]quinoxaline-4-ylamino}-butyl)-3-methyl-butyramide]
– | 63 | COc1ccc2c(c1)nc(NCCCCNC(=O)COC(C)=O)c1nnc(C)n12 [Example 303, acetic acid-[4-(7-methoxy-1-methyl-[1,2,4]triazolo[4,3-a]quinoxaline-4-ylamino)-butylcarbamoyl]-methylester]
≤ 50 | 14 | CC(=O)OC(C)(C)C(=O)NCCCCNc1nc2cc(-c3nc4ccccc4n3C)ccc2n2c(C)nnc12 [Example 231, acetic acid-1-{4-[7-(1-methyl-1H-benzoimidazole-2-yl)-1-methyl-[1,2,4]triazolo[4,3-a]quinoxaline-4-ylamino]-butylcarbamoyl}-1-methyl-ethylester]
– | 77 | COc1cc2c(cc1C)nc(NCCCCNC(=O)c1ccccc1F)c1nnc(C)n12 [Example 155, 2-fluoro-N-[4-(8-methoxy-1,7-dimethyl-[1,2,4]triazolo[4,3-a]quinoxaline-4-ylamino)-butyl]-benzamide]
